Assay results published in ChEMBL document CHEMBL4613266, “Discovery and Structure Relationships of Salicylanilide Derivatives as Potent, Non-acidic P2X1 Receptor Antagonists” (J Med Chem, 2020).

Key:
P2X purinoceptor 1 [1] = target: P2X purinoceptor 1 (Homo sapiens, UniProt P51575); assay: Antagonist activity at non-desensitizing human P2X1 receptor ( P2X2/P2X1 chimera) expressed in human 1321N1 cells assessed as inhibition of ATP-induced calcium influx pre-incubated for 30 mins before ATP stimulation by FLIPR assay relative to control; type: cell-based
[2] = target: T1, P2X purinoceptor 1 (Homo sapiens) (UniProt P51575); assay: Antagonist activity at non-desensitizing human P2X1 receptor ( P2X2/P2X1 chimera) expressed in human 1321N1 cells assessed as inhibition of ATP-induced calcium influx at 100 uM pre-incubated for 30 mins before ATP stimulation by FLIPR assay relative to control; type: cell-based
T1 sequence (whole entry): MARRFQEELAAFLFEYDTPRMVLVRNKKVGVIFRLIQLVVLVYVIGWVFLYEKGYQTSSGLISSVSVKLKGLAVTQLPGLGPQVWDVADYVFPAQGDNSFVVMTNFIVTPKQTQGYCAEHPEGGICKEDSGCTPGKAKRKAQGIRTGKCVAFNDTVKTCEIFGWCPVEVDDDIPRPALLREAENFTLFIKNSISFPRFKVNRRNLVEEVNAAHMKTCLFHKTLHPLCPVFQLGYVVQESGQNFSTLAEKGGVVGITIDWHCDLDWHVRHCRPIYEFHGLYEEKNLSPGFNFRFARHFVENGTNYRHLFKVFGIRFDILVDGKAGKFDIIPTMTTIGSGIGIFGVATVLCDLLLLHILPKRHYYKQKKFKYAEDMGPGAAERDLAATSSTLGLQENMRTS

[3] = target: T1, P2X purinoceptor 1 (Homo sapiens); assay: Antagonist activity at non-desensitizing human P2X1 receptor ( P2X2/P2X1 chimera) expressed in human 1321N1 cells assessed as inhibition of ATP-induced calcium influx at 1 uM pre-incubated for 30 mins before ATP stimulation by FLIPR assay relative to control; type: cell-based
[4] = target: T1, P2X purinoceptor 1 (Homo sapiens); assay: Antagonist activity at non-desensitizing human P2X1 receptor ( P2X2/P2X1 chimera) expressed in human 1321N1 cells assessed as inhibition of ATP-induced calcium influx at 10 uM pre-incubated for 30 mins before ATP stimulation by FLIPR assay relative to control; type: cell-based
P2X purinoceptor 2 = target: T2, P2X purinoceptor 2 (Homo sapiens, UniProt Q9UBL9); assay: Antagonist activity at human P2X2 receptor expressed in human 1321N1 cells assessed as inhibition of ATP-induced cytosolic calcium influx preincubated for 30 mins followed by ATP addition by Fluo-4 AM dye-based fluorescence assay; type: cell-based
T2 sequence (Q9UBL9 whole entry): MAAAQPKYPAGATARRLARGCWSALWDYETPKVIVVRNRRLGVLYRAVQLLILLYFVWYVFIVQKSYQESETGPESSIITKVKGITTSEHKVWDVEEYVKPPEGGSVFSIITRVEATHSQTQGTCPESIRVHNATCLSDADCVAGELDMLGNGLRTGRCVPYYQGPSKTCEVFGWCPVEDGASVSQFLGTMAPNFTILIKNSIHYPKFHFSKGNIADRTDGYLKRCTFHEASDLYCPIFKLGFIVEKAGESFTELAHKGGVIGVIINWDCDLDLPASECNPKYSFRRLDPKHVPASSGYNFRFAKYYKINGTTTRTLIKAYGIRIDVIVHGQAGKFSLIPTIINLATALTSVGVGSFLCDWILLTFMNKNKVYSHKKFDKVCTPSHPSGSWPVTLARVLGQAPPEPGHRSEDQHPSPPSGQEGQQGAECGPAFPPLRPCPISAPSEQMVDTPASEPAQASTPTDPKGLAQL

[5] = target: T3, P2X purinoceptor 2 (Homo sapiens) (UniProt Q9UBL9); assay: Antagonist activity at human P2X2 receptor expressed in human 1321N1 cells assessed as inhibition of ATP-induced cytosolic calcium influx at 10 uM preincubated for 30 mins followed by ATP addition by Fluo-4 AM dye-based fluorescence assay relative to control; type: cell-based
T3 sequence (whole entry): T2 sequence (Q9UBL9 whole entry)

P2X purinoceptor 3 = target: T4, P2X purinoceptor 3 (Homo sapiens, UniProt P56373); assay: Antagonist activity at human P2X3 receptor expressed in human 1321N1 cells assessed as inhibition of ATP-induced cytosolic calcium influx preincubated for 30 mins followed by ATP addition by Fluo-4 AM dye-based fluorescence assay; type: cell-based
T4 sequence (P56373 whole entry): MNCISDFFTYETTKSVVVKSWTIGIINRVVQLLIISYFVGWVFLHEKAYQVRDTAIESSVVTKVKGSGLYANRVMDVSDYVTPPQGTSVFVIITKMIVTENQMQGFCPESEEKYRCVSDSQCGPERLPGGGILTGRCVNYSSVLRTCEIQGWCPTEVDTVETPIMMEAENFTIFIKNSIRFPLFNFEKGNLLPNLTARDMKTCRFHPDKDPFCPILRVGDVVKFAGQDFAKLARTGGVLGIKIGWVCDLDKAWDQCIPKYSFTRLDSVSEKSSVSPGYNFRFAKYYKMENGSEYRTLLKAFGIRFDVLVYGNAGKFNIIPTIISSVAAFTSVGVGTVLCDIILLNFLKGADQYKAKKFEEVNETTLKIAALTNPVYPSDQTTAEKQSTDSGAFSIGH

[6] = target: T5, P2X purinoceptor 3 (Homo sapiens) (UniProt P56373); assay: Antagonist activity at human P2X3 receptor expressed in human 1321N1 cells assessed as inhibition of ATP-induced cytosolic calcium influx at 10 uM preincubated for 30 mins followed by ATP addition by Fluo-4 AM dye-based fluorescence assay relative to control; type: cell-based
T5 sequence (whole entry): T4 sequence (P56373 whole entry)

P2X purinoceptor 4 = target: T6, P2X purinoceptor 4 (Homo sapiens, UniProt Q99571); assay: Antagonist activity at human P2X4 receptor expressed in human 1321N1 cells assessed as inhibition of ATP-induced cytosolic calcium influx preincubated for 30 mins followed by ATP addition by Fluo-4 AM dye-based fluorescence assay; type: cell-based
T6 sequence (Q99571 whole entry): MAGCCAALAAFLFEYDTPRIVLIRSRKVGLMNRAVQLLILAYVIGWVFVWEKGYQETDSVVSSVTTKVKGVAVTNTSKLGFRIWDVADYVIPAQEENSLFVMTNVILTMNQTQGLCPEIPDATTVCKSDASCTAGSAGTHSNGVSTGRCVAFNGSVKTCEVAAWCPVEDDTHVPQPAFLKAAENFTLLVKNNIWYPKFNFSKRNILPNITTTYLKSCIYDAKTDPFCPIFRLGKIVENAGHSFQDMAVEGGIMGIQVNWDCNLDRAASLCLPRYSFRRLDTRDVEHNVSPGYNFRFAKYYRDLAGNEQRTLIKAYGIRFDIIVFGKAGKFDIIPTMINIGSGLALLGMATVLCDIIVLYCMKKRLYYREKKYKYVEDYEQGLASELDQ

P2X purinoceptor 7 = target: T7, P2X purinoceptor 7 (Homo sapiens, UniProt Q99572); assay: Antagonist activity at human P2X7 receptor expressed in human 1321N1 cells assessed as inhibition of ATP-induced cytosolic calcium influx preincubated for 30 mins followed by ATP addition by Fluo-4 AM dye-based fluorescence assay; type: cell-based
T7 sequence (Q99572 whole entry): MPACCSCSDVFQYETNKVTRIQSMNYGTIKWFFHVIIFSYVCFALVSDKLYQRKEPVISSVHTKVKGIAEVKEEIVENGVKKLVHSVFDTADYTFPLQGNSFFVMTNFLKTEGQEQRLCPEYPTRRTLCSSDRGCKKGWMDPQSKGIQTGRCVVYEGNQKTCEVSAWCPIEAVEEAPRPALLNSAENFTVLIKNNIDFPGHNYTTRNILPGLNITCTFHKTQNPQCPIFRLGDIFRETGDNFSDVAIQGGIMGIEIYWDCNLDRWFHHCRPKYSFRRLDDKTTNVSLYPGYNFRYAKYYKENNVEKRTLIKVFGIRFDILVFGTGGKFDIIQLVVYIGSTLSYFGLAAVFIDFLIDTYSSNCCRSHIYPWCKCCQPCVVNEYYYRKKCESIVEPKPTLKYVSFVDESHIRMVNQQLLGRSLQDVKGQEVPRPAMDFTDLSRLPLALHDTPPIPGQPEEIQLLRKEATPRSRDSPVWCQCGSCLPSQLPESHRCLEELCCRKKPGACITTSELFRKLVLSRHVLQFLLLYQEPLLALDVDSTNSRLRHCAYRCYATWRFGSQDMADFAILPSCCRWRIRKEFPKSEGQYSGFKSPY

P2X purinoceptor 1 [7] = target: T8, P2X purinoceptor 1 (Rattus norvegicus, UniProt P47824); assay: Antagonist activity at rat P2X1 receptor
T8 sequence (P47824 whole entry): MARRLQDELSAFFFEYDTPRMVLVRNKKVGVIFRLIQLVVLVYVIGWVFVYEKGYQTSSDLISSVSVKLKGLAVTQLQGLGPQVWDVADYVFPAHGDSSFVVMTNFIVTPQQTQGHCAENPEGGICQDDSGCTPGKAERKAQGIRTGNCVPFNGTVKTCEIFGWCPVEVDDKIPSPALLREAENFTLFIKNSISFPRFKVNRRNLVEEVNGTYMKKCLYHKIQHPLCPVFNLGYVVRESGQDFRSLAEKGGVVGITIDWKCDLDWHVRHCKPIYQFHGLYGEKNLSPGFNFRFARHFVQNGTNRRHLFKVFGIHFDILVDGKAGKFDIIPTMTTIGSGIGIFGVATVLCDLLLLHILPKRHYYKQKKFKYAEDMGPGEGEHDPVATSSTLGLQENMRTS

## O=C(Nc1cc([N+](=O)[O-])cc(C(F)(F)F)c1)c1cccc(Cl)c1O
P2X purinoceptor 1 [1]
  IC50: 219 nM
[2]
  inhibition: 83%

## COc1ccc(Cl)cc1C(=O)Nc1cc(C(F)(F)F)cc(C(F)(F)F)c1
[3]
  inhibition: 17%
P2X purinoceptor 1 [1]
  IC50: > 1000 nM

## O=C(Nc1cc([N+](=O)[O-])cc(C(F)(F)F)c1)c1cc(Cl)ccc1O
[4]
  inhibition: 81%
P2X purinoceptor 1 [1]
  IC50: 31.6 nM
P2X purinoceptor 2
  IC50: > 10000 nM
[5]
  inhibition: 5%
P2X purinoceptor 3
  IC50: > 10000 nM
[6]
  inhibition: 16%
P2X purinoceptor 4
  IC50: 42.6 nM
P2X purinoceptor 7
  IC50: 143 nM

## O=C(Nc1cc(C(F)(F)F)cc(C(F)(F)F)c1)c1cccc(Cl)c1O
[4]
  inhibition: 83%
P2X purinoceptor 1 [1]
  IC50: 58 nM
P2X purinoceptor 2
  IC50: > 10000 nM
[5]
  inhibition: 13%
P2X purinoceptor 3
  IC50: > 10000 nM
[6]
  inhibition: 28%
P2X purinoceptor 4
  IC50: 48.8 nM
P2X purinoceptor 7
  IC50: 177 nM

## O=C(Nc1cccc(Cl)c1)c1cc(Cl)ccc1O
[4]
  inhibition: 64%
P2X purinoceptor 1 [1]
  IC50: 75.6 nM
P2X purinoceptor 2
  IC50: > 10000 nM
[5]
  inhibition: 0%
P2X purinoceptor 3
  IC50: > 10000 nM
[6]
  inhibition: 3%
P2X purinoceptor 4
  IC50: 135 nM
P2X purinoceptor 7
  IC50: 599 nM

## Cc1nc(/N=N/c2ccc(S(=O)(=O)O)cc2S(=O)(=O)O)c(COP(=O)(O)O)c(C=O)c1O
P2X purinoceptor 1 [7]
  IC50: 1000 nM

## O=C(N[C@H](Cc1cscn1)C(=O)N[C@@H](CC1CCCCC1)[C@@H](O)[C@@H](O)C1CC1)c1nc2ccccc2[nH]1
P2X purinoceptor 1 [7]
  IC50: 3000 nM
[4]
  inhibition: 100%
P2X purinoceptor 1 [1]
  IC50: 496 nM

## O=C(Nc1ccc(Cl)c([N+](=O)[O-])c1)c1cc(Cl)ccc1O
P2X purinoceptor 1 [1]
  IC50: 13500 nM
[2]
  inhibition: 80%

## O=C(Nc1cccc(OC(F)(F)F)c1)c1cc(Cl)ccc1O
P2X purinoceptor 1 [1]
  IC50: 7620 nM
[2]
  inhibition: 100%

## O=C(Nc1cccc(C(F)(F)F)c1)c1cc(Cl)ccc1O
[4]
  inhibition: 75%
P2X purinoceptor 1 [1]
  IC50: 91 nM
P2X purinoceptor 2
  IC50: > 10000 nM
[5]
  inhibition: 5%
P2X purinoceptor 3
  IC50: > 10000 nM
[6]
  inhibition: 4%
P2X purinoceptor 4
  IC50: 537 nM
P2X purinoceptor 7
  IC50: 6320 nM
